Measurements from paper PMC6997888, “Salicylic Acid Targets Protein Phosphatase 2A to Attenuate Growth in Plants” (Current Biology, 2020).

Tests used:
[1] = target: T1, PP2AA3 (Arabidopsis thaliana, UniProt Q38951); assay: SPR, steady state; SA-f immobilized on CM5 chip, His-PP2AA3 flowed over; assay type: binding
T1 construct: recombinant His-PP2AA3 (pET28a, coding region)
T1 sequence (Q38951 1-587): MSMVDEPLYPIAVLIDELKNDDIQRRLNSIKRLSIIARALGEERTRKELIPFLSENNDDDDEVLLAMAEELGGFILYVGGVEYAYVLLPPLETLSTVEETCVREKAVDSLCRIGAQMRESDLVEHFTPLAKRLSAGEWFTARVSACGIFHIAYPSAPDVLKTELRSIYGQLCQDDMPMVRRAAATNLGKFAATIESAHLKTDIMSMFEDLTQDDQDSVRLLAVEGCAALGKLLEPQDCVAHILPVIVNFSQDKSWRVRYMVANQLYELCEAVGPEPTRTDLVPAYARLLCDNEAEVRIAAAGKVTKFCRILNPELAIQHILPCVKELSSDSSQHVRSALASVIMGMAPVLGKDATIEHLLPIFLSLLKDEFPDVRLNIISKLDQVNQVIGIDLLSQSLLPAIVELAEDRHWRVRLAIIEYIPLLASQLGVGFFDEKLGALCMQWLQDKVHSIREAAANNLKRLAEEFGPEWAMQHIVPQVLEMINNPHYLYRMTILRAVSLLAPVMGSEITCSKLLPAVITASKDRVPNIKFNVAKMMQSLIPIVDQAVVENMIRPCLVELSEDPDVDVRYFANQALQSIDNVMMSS
Excerpt: SPR, steady state; SA-f immobilized on CM5 chip, His-PP2AA3 flowed over on PP2AA3 | The same sensor chip as above was used, and different concentrations of His-PP2AA3 were applied.

[2] = target: T2, PP2AA1 (Arabidopsis thaliana, UniProt Q38845); assay: SPR, steady state; SA-f immobilized on CM5 chip, His-PP2AA1 flowed over; assay type: binding
T2 construct: recombinant His-PP2AA1 (pET28a, coding region)
T2 sequence (Q38845 1-588): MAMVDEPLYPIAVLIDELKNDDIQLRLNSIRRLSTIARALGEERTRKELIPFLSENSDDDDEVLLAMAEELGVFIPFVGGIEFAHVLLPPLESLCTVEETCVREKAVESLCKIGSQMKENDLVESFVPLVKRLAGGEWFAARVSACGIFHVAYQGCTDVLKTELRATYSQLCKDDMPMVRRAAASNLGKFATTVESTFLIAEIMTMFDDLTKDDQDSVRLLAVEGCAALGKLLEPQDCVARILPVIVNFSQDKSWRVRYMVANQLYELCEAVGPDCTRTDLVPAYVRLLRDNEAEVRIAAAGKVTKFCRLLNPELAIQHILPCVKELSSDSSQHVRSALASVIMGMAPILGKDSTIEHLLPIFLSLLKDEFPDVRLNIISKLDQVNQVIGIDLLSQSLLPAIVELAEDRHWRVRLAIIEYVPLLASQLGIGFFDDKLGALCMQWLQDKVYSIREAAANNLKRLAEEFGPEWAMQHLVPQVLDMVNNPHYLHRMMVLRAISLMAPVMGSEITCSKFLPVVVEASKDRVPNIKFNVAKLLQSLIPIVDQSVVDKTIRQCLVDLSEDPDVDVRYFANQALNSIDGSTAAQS
Excerpt: SPR, steady state; SA-f immobilized on CM5 chip, His-PP2AA1 flowed over on PP2AA1 | An active synthetic SA analog (SA-f) was immobilized on a CM-5 sensor chip, and different concentrations of His-PP2AA1 were applied

Kd [1]: 1920 nM
Kd [2]: 3620 nM
Compound: NCCCCCOc1ccc(O)c(C(=O)O)c1 [SA-f, 5-((5-aminopentyl)oxy)-2-hydroxybenzoic acid]
